{"source": "ChEMBL document CHEMBL5550099", "about": "“Synthesis and biological activity of 11-Oxygenated and heterocyclic estrone analogs in pancreatic cancer monolayers and 3D spheroids” (Bioorg Med Chem, 2024)", "key": {"[1]": {"system": "PANC-1", "experiment": "Cytotoxicity against human PANC-1 cells incubated for 48 hrs by MTT assay", "type": "functional, cell-based", "details": "PANC-1, 48 h"}, "[2]": {"system": "ASPC1", "experiment": "Cytotoxicity against human ASPC1 cells incubated for 48 hrs by MTT assay", "type": "functional, cell-based", "details": "ASPC1, 48 h"}, "[3]": {"system": "BXPC-3", "experiment": "Cytotoxicity against human BXPC-3 cells incubated for 48 hrs by MTT assay", "type": "functional, cell-based", "details": "BXPC-3, 48 h"}, "[4]": {"system": "PANC-1", "experiment": "Induction of apoptosis in human PANC-1 cells co-cultured with human pancreatic stellate cells assessed as increase in caspase-3/7 activity upto 50 uM incubated for 48 hrs by Glo-max luminescence assay relative to control", "type": "functional", "details": "up to 50 µM"}, "[5]": {"system": "PANC-1", "experiment": "Cytotoxicity against human PANC-1 cells cultured as 3D spheroids assessed as reduction in spheroid growth rate at 0.1 to 100 uM measured every two days by microscopic analysis", "type": "functional, cell-based", "details": "dose 0.1-100 µM"}, "[6]": {"system": "PANC-1", "experiment": "Cytotoxicity against human PANC-1 cells co-cultured with human pancreatic stellate cells assessed as reduction in spheroid growth rate at 0.1 to 100 uM measured every two days by microscopic analysis", "type": "functional, cell-based", "details": "dose 0.1-100 µM"}, "[7]": {"system": "PANC-1", "experiment": "Induction of apoptosis in human PANC-1 cells cultured as 3D spheroids assessed as increase in caspase-3/7 activity upto 50 uM incubated for 48 hrs by Glo-max luminescence assay relative to control", "type": "functional", "details": "up to 50 µM"}, "[8]": {"system": "PANC-1", "experiment": "Induction of apoptosis in human PANC-1 cells cultured as 3D spheroids assessed as fold increase in caspase-3/7 activity at 0.1 uM incubated for 48 hrs by Glo-max luminescence assay", "type": "functional"}, "[9]": {"system": "PANC-1", "experiment": "Induction of apoptosis in human PANC-1 cells co-cultured with human pancreatic stellate cells assessed as fold increase in caspase-3/7 activity at 0.1 uM incubated for 48 hrs by Glo-max luminescence assay", "type": "functional"}, "[10]": {"system": "PANC-1", "experiment": "Induction of cell cycle arrest in human PANC-1 cells assessed as accumulation of cells at G2 phase at IC50 measured after 72 hrs by propidium iodide/RNase 141 staining based flow cytometry", "type": "functional"}, "[11]": {"system": "PANC-1", "experiment": "Induction of apoptosis in human PANC-1 cells cultured as 3D spheroids assessed as decrease in caspase-3/7 activity by measuring reduction in cell number at 1 to 10 uM incubated for 48 hrs by Glo-max luminescence assay", "type": "functional, cell-based", "details": "dose 1-10 µM"}, "[12]": {"system": "PANC-1", "experiment": "Cytotoxicity against human PANC-1 cells cultured as 3D spheroids incubated for 48 hrs by Cell-titer glo luminescence assay", "type": "functional, cell-based", "details": "PANC-1, 48 h"}, "[13]": {"system": "PANC-1", "experiment": "Cytotoxicity against human PANC-1 cells co-cultured with human pancreatic stellate cells incubated for 48 hrs by MTT assay", "type": "functional, cell-based"}, "[14]": {"system": "PANC-1", "experiment": "Induction of apoptosis in human PANC-1 cells co-cultured with human pancreatic stellate cells assessed as decrease in caspase-3/7 activity by measuring reduction in cell number at 1 to 10 uM incubated for 48 hrs by Glo-max luminescence assay", "type": "functional, cell-based", "details": "dose 1-10 µM"}, "[15]": {"system": "PANC-1", "experiment": "Cytotoxicity against human PANC-1 cells co-cultured with human pancreatic stellate cells incubated for 48 hrs by Cell-titer glo luminescence assay", "type": "functional, cell-based", "details": "PANC-1, 48 h"}, "[16]": {"system": "PANC-1", "experiment": "Induction of cell cycle arrest in human PANC-1 cells assessed as accumulation of cells at G1 phase at IC50 measured after 72 hrs by propidium iodide/RNase 141 staining based flow cytometry", "type": "functional"}, "[17]": {"system": "PANC-1", "experiment": "Cytotoxicity against human PANC-1 cells cultured as 3D spheroids assessed as inhibition of spheroid growth rate at 10 uM measured every two days by microscopic analysis", "type": "functional, cell-based"}, "[18]": {"system": "PANC-1", "experiment": "Cytotoxicity against human PANC-1 cells co-cultured with human pancreatic stellate cells assessed as inhibition of spheroid growth rate at 10 uM measured every two days by microscopic analysis", "type": "functional, cell-based"}}, "note": "pIC50: −log10 of the molar value. Activity calls are given as the source filed them. No cut-off for these calls is given here.", "data": [{"smiles": "Nc1ccn([C@@H]2O[C@H](CO)[C@@H](O)C2(F)F)c(=O)n1", "note": "[GEMCITABINE]", "values": [{"measurement": "pIC50", "setting": "[1]", "result": "< 4.30"}, {"measurement": "pIC50", "setting": "[2]", "result": "< 4.30"}, {"measurement": "pIC50", "setting": "[3]", "result": "< 4.30"}, {"measurement": "Activity", "setting": "[4]", "result": 20, "unit": "%"}, {"measurement": "Activity", "setting": "[5]", "result": "Active"}, {"measurement": "Activity", "setting": "[6]", "result": "Active"}, {"measurement": "Activity", "setting": "[7]", "result": 20, "unit": "%"}]}, {"smiles": "COc1ccc2c(c1)CC[C@@H]1[C@@H]2[C@H](O)C[C@]2(C)C([C@@](C)(O)C(=O)/C=C/C(C)(C)O)CC[C@@H]12", "note": "(some centres undefined)", "values": [{"measurement": "fold change (FC)", "setting": "[8]", "result": 1.5}, {"measurement": "fold change (FC)", "setting": "[9]", "result": 1.5}, {"measurement": "pIC50", "setting": "[1]", "result": 4.93}, {"measurement": "Activity", "setting": "[10]", "result": "Active"}, {"measurement": "pIC50", "setting": "[2]", "result": 4.76}, {"measurement": "pIC50", "setting": "[3]", "result": 4.99}, {"measurement": "Activity", "setting": "[11]", "result": "Active"}, {"measurement": "pIC50", "setting": "[12]", "result": 4.43}, {"measurement": "Activity", "setting": "[13]", "result": "Active"}, {"measurement": "Activity", "setting": "[14]", "result": "Active"}, {"measurement": "pIC50", "setting": "[15]", "result": 4.40}]}, {"smiles": "COc1ccc2c(c1)CC[C@@H]1[C@@H]2[C@H](O)C[C@]2(C)C([C@@](C)(O)C(=O)/C=C/c3ccc(C(F)(F)F)cc3)CC[C@@H]12", "note": "(some centres undefined)", "values": [{"measurement": "fold change (FC)", "setting": "[8]", "result": 1.5}, {"measurement": "fold change (FC)", "setting": "[9]", "result": 1.5}, {"measurement": "pIC50", "setting": "[1]", "result": 5.19}, {"measurement": "Activity", "setting": "[10]", "result": "Active"}, {"measurement": "pIC50", "setting": "[2]", "result": 4.94}, {"measurement": "pIC50", "setting": "[3]", "result": 5.22}, {"measurement": "Activity", "setting": "[11]", "result": "Active"}, {"measurement": "pIC50", "setting": "[12]", "result": 4.43}, {"measurement": "Activity", "setting": "[13]", "result": "Active"}, {"measurement": "Activity", "setting": "[14]", "result": "Active"}, {"measurement": "pIC50", "setting": "[15]", "result": "< 4.30"}]}, {"smiles": "COc1ccc2c(c1)CC[C@@H]1[C@@H]2CC[C@]2(C)C([C@@](C)(O)C(=O)/C=C/c3cccs3)CC[C@@H]12", "note": "(some centres undefined)", "values": [{"measurement": "pIC50", "setting": "[1]", "result": 4.42}, {"measurement": "pIC50", "setting": "[2]", "result": "< 4.30"}]}, {"smiles": "COc1ccc2c(c1)CC[C@@H]1[C@@H]2CC[C@]2(C)C([C@@](C)(O)C(=O)/C=C/c3ccc(Cl)o3)CC[C@@H]12", "note": "(some centres undefined)", "values": [{"measurement": "pIC50", "setting": "[1]", "result": "< 4.30"}, {"measurement": "pIC50", "setting": "[2]", "result": 4.40}]}, {"smiles": "C[C@](O)(C(=O)/C=C/c1ccc(Cl)o1)C1CC[C@H]2[C@@H]3CCc4cc(O)ccc4[C@H]3CC[C@]12C", "note": "(some centres undefined)", "values": [{"measurement": "pIC50", "setting": "[1]", "result": 4.99}, {"measurement": "pIC50", "setting": "[2]", "result": "< 4.30"}]}, {"smiles": "C[C@](O)(C(=O)/C=C/c1ccc(Cl)s1)C1CC[C@H]2[C@@H]3CCc4cc(O)ccc4[C@H]3CC[C@]12C", "note": "(some centres undefined)", "values": [{"measurement": "pIC50", "setting": "[1]", "result": 4.40}, {"measurement": "pIC50", "setting": "[2]", "result": "< 4.30"}]}, {"smiles": "Cc1ccc(/C=C/C(=O)[C@](C)(O)C2CC[C@H]3[C@@H]4CCc5cc(O)ccc5[C@H]4CC[C@]23C)s1", "note": "(some centres undefined)", "values": [{"measurement": "pIC50", "setting": "[1]", "result": "< 4.30"}, {"measurement": "pIC50", "setting": "[2]", "result": 4.33}]}, {"smiles": "C[C@](O)(C(=O)/C=C/c1cccs1)C1CC[C@H]2[C@@H]3CCc4cc(O)ccc4[C@H]3CC[C@]12C", "note": "(some centres undefined)", "values": [{"measurement": "pIC50", "setting": "[1]", "result": 4.38}, {"measurement": "pIC50", "setting": "[2]", "result": "< 4.30"}]}, {"smiles": "COc1ccc2c(c1)CC[C@@H]1[C@@H]2CC[C@]2(C)C([C@@](C)(O)C(=O)/C=C/c3ccc(C)s3)CC[C@@H]12", "note": "(some centres undefined)", "values": [{"measurement": "pIC50", "setting": "[1]", "result": "< 4.30"}, {"measurement": "pIC50", "setting": "[2]", "result": "< 4.30"}]}, {"smiles": "Cc1ccc(/C=C/C(=O)[C@](C)(O)C2CC[C@H]3[C@@H]4CCc5cc(OS(N)(=O)=O)ccc5[C@H]4CC[C@]23C)s1", "note": "(some centres undefined)", "values": [{"measurement": "pIC50", "setting": "[1]", "result": "< 4.30"}, {"measurement": "pIC50", "setting": "[2]", "result": 4.42}]}, {"smiles": "COc1ccc2c(c1)CC[C@@H]1[C@@H]2CC[C@]2(C)C([C@@](C)(O)C(=O)/C=C/c3ccc(Cl)s3)CC[C@@H]12", "note": "(some centres undefined)", "values": [{"measurement": "pIC50", "setting": "[1]", "result": 4.48}, {"measurement": "pIC50", "setting": "[2]", "result": "< 4.30"}]}, {"smiles": "COc1ccc2c(c1)CC[C@@H]1[C@@H]2C(=O)C[C@]2(C)C([C@@](C)(O)C(=O)/C=C/c3ccc(C(F)(F)F)cc3)CC[C@@H]12", "note": "(some centres undefined)", "values": [{"measurement": "fold change (FC)", "setting": "[8]", "result": 1.5}, {"measurement": "Activity", "setting": "[16]", "result": "Active"}, {"measurement": "fold change (FC)", "setting": "[9]", "result": 1.5}, {"measurement": "pIC50", "setting": "[1]", "result": 5.28}, {"measurement": "Activity", "setting": "[17]", "result": "Active"}, {"measurement": "pIC50", "setting": "[2]", "result": 5.38}, {"measurement": "pIC50", "setting": "[3]", "result": 5.24}, {"measurement": "Activity", "setting": "[11]", "result": "Active"}, {"measurement": "pIC50", "setting": "[12]", "result": 4.68}, {"measurement": "Activity", "setting": "[13]", "result": "Active"}, {"measurement": "Activity", "setting": "[18]", "result": "Active"}, {"measurement": "Activity", "setting": "[14]", "result": "Active"}, {"measurement": "pIC50", "setting": "[15]", "result": 4.61}]}, {"smiles": "C[C@](O)(C(=O)/C=C/c1cccs1)C1CC[C@H]2[C@@H]3CCc4cc(OS(N)(=O)=O)ccc4[C@H]3CC[C@]12C", "note": "(some centres undefined)", "values": [{"measurement": "pIC50", "setting": "[1]", "result": 4.28}, {"measurement": "pIC50", "setting": "[2]", "result": 4.32}]}, {"smiles": "C[C@](O)(C(=O)/C=C/c1ccc(Cl)s1)C1CC[C@H]2[C@@H]3CCc4cc(OS(N)(=O)=O)ccc4[C@H]3CC[C@]12C", "note": "(some centres undefined)", "values": [{"measurement": "pIC50", "setting": "[1]", "result": "< 4.30"}, {"measurement": "pIC50", "setting": "[2]", "result": "< 4.30"}]}]}
